“Also recorded” adds a separate entry of the source.
Assays:
Type in all cases: in vivo, mouse
[1] = system: BALB/C mice, syngeneic transplant; assay: Innate immune cells of the lamina propria after syngeneic transplant; conditions: for recovery of mature (P4) lamina propria macrophages: D+7, vs vehicle
Text: To assess the impact of GLP-2 on macrophage maturation in the absence of inflammatory GVHD, BALB/C mice were transplanted with T-cell depleted bone marrow from BALB/C donors and given daily S.C. injections of GLP-2 as mentioned above. […] P1-P4 macrophages were gated as CD45+CD19^−CD3-Ly6G^− and CD11b^+ or CD11c^+. Subsets of the “monocyte-waterfall” were gated as: P1: CD64^−/low Ly6C^+MHC II^− CX3CR1^−/low; P2: CD64^low/+Ly6C^+ MHC II^+ CX3CR1^−/low; P3: CD64^+ Ly6C^−MHC II^+ CX3CR1^−/low; P4: CD64^+Ly6C^−MHC II^+ CX3CR1^+. N=4 per treatment group.
Daily subcutaneous injection of GLP-2 increases the relative abundance of lamina propria ILCs in a process that appears to target type-3 ILCs (ILC3s). ILC3s are important immunomodulators of the lamina propria and intestinal stem-cell (ISC) niche via their production of IL-22, playing a role in ISC maintenance. […] ILCs were gated as CD45^+ CD19^− CD3^− Ly6G^− CD11b^− CD11c^− CD127^+, with subsets being assigned based on Tbet (ILC1), GATA-3 (ILC2) and RORgt (ILC3) expression.

[2] = system: BALB/c syngeneic transplant recipients after high-dose lethal radiation; assay: Syngeneic transplant after high-dose lethal radiation, different elsiglutide treatment schedules; conditions: for apoptotic bodies within the crypts (TUNEL stain): D4 after radiation
Procedure: This experiment was carried out to determine the effect of daily elsiglutide administration (800 nmol/kg) on weight recovery and bowel weight in response to high dose radiotherapy using different treatment schedules. Syngeneic transplant was performed to rescue the animals from early death due to hematopoietic failure to be able to examine the mice at several time points. […] Treatment with elsiglutide increased small bowel mass after irradiation and syngeneic transplant. The longer the treatment the more pronounced the effect.
TUNEL stain was then performed to assess apoptosis of intestinal epithelial cells on D4 after radiation. We observed a small number of apoptotic bodies within the crypts of all mice at D4 post irradiation and transplantation (FIG. 4).

healthy BALB/c mice = assay: Escalating elsiglutide doses in healthy mice (no irradiation or transplant)
Procedure: In this experiment elsiglutide at escalating doses (200-800 nmol/kg/d) was injected to healthy mice without irradiation or chemotherapy for 10 days.
In this experiment we also performed Ki67 stains to document the proliferation of crypt cells in response to elsiglutide (FIG. 7). In healthy mice treated with vehicle Ki67 immunoreactivity was predominantly confined to the crypts where the stem cells reside.

[3] = system: BALB/C mice, lethal TBI and allogeneic transplantation; assay: Cage conditions experiment in allogeneic transplant (co-housed, separate, separate plus antibiotics); conditions: caged separately plus antibiotics D-2 to D+14; listed as GLP-2
Text: BALB/C mice underwent lethal TBI and allogeneic transplantation were assigned to 3 cage conditions to perturb their microbial composition: 1) vehicle and GLP-2 treated animals housed together, 2) treatment groups housed separately or 3) treatment groups housed separately and provided with neomycin and polymyxin-b in their drinking water from D-2 to D+14 post-transplant.
We then assessed the role of microbial communities in the protective effect of GLP-2 by conducting an allogeneic transplant with 3 caging conditions; 1) vehicle and GLP-2 treated mice caged together, 2) caged separately, or 3) caged separately plus oral antibiotics.

[4] = system: major MHC-mismatched GVHD model, BALB/c mice; assay: GVHD prevention after allogeneic HSCT with lower T-cell dose (0.5×10^6 splenic T cells)
Text: (§1) To determine the effect of elsiglutide treatment on graft-versus-host disease in MHC-mismatched (allogeneic) murine hematopoietic stem-cell transplantation and identify the optimal dosing schedule, in this experiment BALB/c mice were lethally-irradiated and transplanted with bone marrow (5×10^6 cells) from B6 mice plus 2×10^6 splenic T-cells and treated with 800 nmol/kg/d elsiglutide at 4 different treatment schedules (syngeneic transplant and allogeneic transplant with vehicle were used as controls).
In a subsequent experiment, we used the same design as Example 3 but with T-cell depleted (TCD) bone marrow (BM) cells (5×10^6 cells) and a lower T-cell dose (0.5×10^6 splenic T cells) to allow examination of survival differences in a major MHC-mismatched GVHD model (aggressive GVHD model). As treatment effect was similar in this experiment for groups 3-4 and 5-6, these groups were combined into an “elsiglutide pre-transplant” group and an “elsiglutide post-transplant” group for presentation. In addition, animals originally designated to end treatment on D4 resumed treatment on D9 and continued until D30 or SAC. This time, the administration of elsiglutide beginning on D1 post-transplantation rescued 100% of mice from lethal GVHD along with improvement in GVHD scores and weight. […] Control mice (allogeneic transplant with vehicle control) had 100% mortality as expected and syngeneic control mice had 100% survival as expected (FIG. 10). This further supports the hypothesis that the timing of administration of the drug (post- vs. pre-radiation conditioning) is critical.

[5] = system: graft-versus-host disease in lethally-irradiated BALB/c mice transplanted from B6 mice; assay: GVHD prevention after major MHC-mismatched allogeneic HSCT (2×10^6 splenic T-cells); conditions: 800 nmol/kg/d
Text: as §1

[6] = system: major MHC mismatched allogeneic transplant mice; assay: Mechanistic study in major MHC-mismatched allogeneic transplant (flow cytometry/histology of organs, serum cytokines); conditions: for proportion of Th1 and CD8+ T-cells expressing T-bet (intraepithelial, small intestine): 800 nmol/kg daily subcutaneous; for engraftment of hematopoietic stem cells / donor cells in the spleen: post-transplant elsiglutide vs vehicle, D7
Text: BALB/C mice underwent lethal TBI. (850 cGy Cs137) and transplantation with 5×10^6 T-cell depleted bone marrow cells and 1×10^6 splenic T-cells from B6 donors (major MHC-mismatch model).
To further explore the mechanism behind the treatment effect observed in Example 4, we used the same experimental design as Example 4. […]

intestinal microbiota = assay: Intestinal microbiota by 16S rRNA sequencing of stool after lethal TBI and syngeneic transplantation
Procedure: Mice undergoing lethal TBI were treated with daily S.C. injections with Elsiglutide (GLP-2) and their stool collected for 16s rRNA sequencing on D+0 (baseline), D+14 and D+28 post-transplant.
To assess potential mechanisms for the differences in macrophage and T-cell phenotype, we examined the impact of GLP-2 on the intestinal microbiota. A syngeneic BALB/cJ model (similar to Example 1) was used to explore the effects of GLP-2 independent of GVHD. Stool samples from D+0, D+14, and D+28 were subjected to 16S rRNA sequencing. Vehicle-treated mice had distinct […] clusters at all time-points, showing a transplant effect on the microbiota (FIG. 28A). […] These taxa have been associated with anti-inflammatory properties and A. muciniphila abundance is linked to epithelial mucin production, which is increased by GLP-2.

[7] = D+21 post-transplant, listed as Elsiglutide
[8] = post-transplant elsiglutide, allogeneic transplant

elsiglutide
ILC3 [1]: significant increase | recovery of mature (P4) lamina propria macrophages [1]: improved recovery | recovery of mature (P4) lamina propria macrophages ([1]; listed as GLP-2): increased shift | recovery / relative abundance of lamina propria ILCs ([1]; D+14): improved | recovery / relative abundance of lamina propria ILCs ([1]; D+14, listed as GLP-2): increases | weight recovery after high dose radiotherapy ([2]; 800 nmol/kg daily, several treatment schedules): without a clear effect | weight recovery after radiation ([2]; 800 nmol/kg daily, treatment start on D-3): slightly worse than other schedules | small bowel mass after irradiation and syngeneic transplant ([2]; 800 nmol/kg daily, longer treatment more pronounced): increased | apoptotic bodies within the crypts (TUNEL stain) ([2]; pre-transplant treated animals (D-7), vs vehicle): increased abundance of apoptotic bodies | apoptotic bodies within the crypts (TUNEL stain) ([2]; treatment D-7 to D-3 then resumed on D1): very few apoptotic bodies | apoptotic bodies within the crypts (TUNEL stain) ([2]; treatment beginning D1 post-transplant): almost no apoptotic bodies | villi length and crypt depth (histology, distal small bowel) ([2]; after radiation, longer courses most pronounced): enhanced | Ki67 staining, difference between doses (healthy BALB/c mice; 200-800 nmol/kg/d): no obvious difference | total body weight over baseline (healthy BALB/c mice; 200-800 nmol/kg/d for 10 days, unirradiated): enhanced; also recorded: dose-dependent weight increase | weight of small and large bowel (healthy BALB/c mice; 200-800 nmol/kg/d, by day 10): enhanced; also recorded: dose-dependent increase | Ki67 proliferation staining of crypt cells (healthy BALB/c mice; vs vehicle-treated healthy mice): extended further out of the crypts into the villi | effect of oral antibiotics (neomycin and polymyxin-b) on the survival benefit of treatment [3]: dampened the beneficial effect; also recorded: reduced the efficacy | GVHD scores and weight ([4]; elsiglutide beginning on D1 post-transplantation): improvement | mice rescued from lethal GVHD ([4]; elsiglutide beginning on D1 post-transplantation, through day 35): 100% | mice surviving long term ([4]; post-transplant elsiglutide group, after discontinuation of treatment (day 30)): 50% | GVHD scores and weight in surviving mice ([4]; pre-transplant elsiglutide): still had an effect | mice rescued from death ([4]; pre-transplant elsiglutide, through day 35): 40% | small bowel weight and length ([5]; 4 treatment schedules, p<0.0001, not dependent on schedule): increase | GVHD outcome ([5]; 2×10^6 T-cell dose, all mice except 1 from −D3-D4 group, euthanized by D8): developed severe GvHD by D6 | proportion of Th1 and CD8+ T-cells expressing T-bet (intraepithelial, small intestine) [6]: lower proportion | proportion of Th1 and CD8+ T-cells expressing T-bet (intraepithelial, small intestine) ([6]; listed as Elsiglutide): reduced | interferon gamma in the serum ([6]; D+21 after transplant, vs vehicle): lower levels | co-stimulatory molecules and SIRPα on lamina propria macrophages ([6]; D+21 post-transplant): reduced expression of co-stimulatory molecules and increased SIRPα | lamina propria macrophages with tolerogenic/mature phenotype (higher CX3CR1, SIRP-alpha; lower CD80, CD86, CD206) ([6]; D+21 post-transplant): increase | Ly6C^high MHC-II^low immature macrophages [6, 7]: decrease; also recorded: significant reduction | lamina propria macrophages with tolerogenic/mature phenotype (higher CX3CR1, SIRP-alpha; lower CD80, CD86, CD206) [6, 7]: increased prevalence | recovery of innate lymphoid cell (ILC) subtypes in lamina propria ([6]; allogeneic setting, D+14 post-transplant): did not enhance recovery of any ILC subtype | T-cell activation ([6]; day 7 after transplant): reduced | engraftment of hematopoietic stem cells / donor cells in the spleen [6]: did not impair | engraftment of hematopoietic stem cells / donor cells in the spleen ([6]; listed as elsigltide): comparable engraftment | body weight loss [6, 8]: absence of weight loss | small bowel mass and length [6, 8]: increase | lung inflammation, macroscopic assessment (1×) ([6]; vs allogeneic transplant mice with vehicle): fewer areas of inflammation and healthier appearing lung tissue | CD44 expression on gut T-cells ([6]; vs vehicle): higher | expression of adhesion molecules on gut lamina propria T-cells (CD103 on CD4 T-cells) ([6]; vs vehicle): decreased; also recorded: lower | lung infiltrates and alveolar wall thickening (20×) ([6]; vs vehicle): decreased infiltration and less alveolar wall thickening | CD3+ T-cell infiltration in colon and small bowel (immunohistochemistry) ([6]; vs vehicle treated mice): decreased T-cell infiltration with more focal and less diffuse pattern of infiltration and fewer intraepithelial T-cells | T-EMRA cells in CD4 and CD8 T-cells, IEL and LPL ([6]; vs vehicle-treated mice): fewer | alveolar diameter and alveolar wall thickness ([6]; vs vehicle-treated mice): decreased inflammation and alveolar damage | inflammation in the liver portal triads ([6]; vs vehicle-treated mice, 20× magnification): decreased inflammation | abundance of Bacteroidales S24-7 family (intestinal microbiota; D+14 and D+28): significantly enriched | abundance of Akkermansia muciniphila (intestinal microbiota; D+14 and D+28, listed as GLP-2): significantly enriched; also recorded: increased | β-diversity of stool microbiota by D+28 (intestinal microbiota; continual treatment): shifts in β-diversity | β-diversity clusters of stool microbiota, D+0 vs D+14 (intestinal microbiota; daily S.C. injections, listed as GLP-2): near-complete cluster overlap; also recorded: overlap between D+0 and D+14 samples

Source: patent US20230364196A1, “METHODS FOR TREATING GRAFT-VERSUS-HOST DISEASE USING GLP-2 AGONISTS AND ANALOGUES THEREOF” (THE TRUSTEES OF COLUMBIA UNIVERSITY IN THE CITY OF NEW YORK, priority 2021, published 2023)
